{"source": "paper PMC4303209", "about": "“A novel phosphatidylinositol 3-kinase (PI3K) inhibitor directs a potent FOXO-dependent, p53-independent cell cycle arrest phenotype characterized by the differential induction of a subset of FOXO-regulated genes” (Breast Cancer Research : BCR, 2014)", "test_system": "MCF-7 breast cancer cells", "assay": "Microarray gene expression analysis (Agilent whole human genome 4 x 44K; compound vs DMSO, LIMMA log2 fold change)", "type": "cell-based", "data": [{"compound": "Cn1ncc2c(N3CCOCC3)nc(-c3cccc(O)c3)nc21", "note": "[ETP-45658]", "values": [{"measurement": "EYA1 log2FC", "setting": "gene EYA1 (2138), apoptosis genes", "value": 0.012}, {"measurement": "log2FC EYA1", "setting": "gene EYA1 (Gene 2138), cell cycle genes", "value": 0.012}, {"measurement": "FABP1 log2FC", "setting": "gene FABP1 (2168), apoptosis genes", "value": 0.009}, {"measurement": "FAIM2 log2FC", "setting": "gene FAIM2 (23017), apoptosis genes", "value": -0.062}, {"measurement": "FAM3B log2FC", "setting": "gene FAM3B (54097), apoptosis genes", "value": -0.028}, {"measurement": "FAM32A log2FC", "setting": "gene FAM32A (26017), apoptosis genes", "value": -0.032}, {"measurement": "log2FC FAM32A", "setting": "gene FAM32A (Gene 26017), cell cycle genes", "value": -0.032}, {"measurement": "log2FC", "setting": "gene FAM58A (Gene 92002), cell cycle genes", "value": 0.217}, {"measurement": "FAS log2FC", "setting": "gene FAS (355), apoptosis genes", "value": -0.032}, {"measurement": "log2FC", "setting": "gene FBXL15 (Gene 79176), cell cycle genes", "value": 0.209}, {"measurement": "log2FC FGFR1OP", "setting": "gene FGFR1OP (Gene 11116), cell cycle genes", "value": -0.035}, {"measurement": "FIS1 log2FC", "setting": "gene FIS1 (51024), apoptosis genes", "value": -0.018}, {"measurement": "FKSG2 log2FC", "setting": "gene FKSG2 (59347), apoptosis genes", "value": 0.133}, {"measurement": "log2FC", "setting": "gene FMN2 (Gene 56776), cell cycle genes", "value": 0.105}, {"measurement": "FOXB1 log2FC", "setting": "gene FOXB1 (27023), apoptosis genes", "value": -0.340}, {"measurement": "log2FC", "setting": "gene FSD1 (Gene 79187), cell cycle genes", "value": -0.401}, {"measurement": "GADD45G log2FC", "setting": "gene GADD45G (10912), apoptosis genes", "value": -0.067}, {"measurement": "GAPDH log2FC", "setting": "gene GAPDH (2597), apoptosis genes", "value": -0.037}, {"measurement": "log2FC", "setting": "gene GAS2L1 (Gene 10634), cell cycle genes", "value": -0.313}, {"measurement": "log2FC GAS2L2", "setting": "gene GAS2L2 (Gene 246176), cell cycle genes", "value": -0.00355}, {"measurement": "GAS6 log2FC", "setting": "gene GAS6 (2621), apoptosis genes", "value": -0.052}, {"measurement": "GATA6 log2FC", "setting": "gene GATA6 (2627), apoptosis genes", "value": -0.019}, {"measurement": "log2FC GATA6", "setting": "gene GATA6 (Gene 2627), cell cycle genes", "value": -0.019}, {"measurement": "GCG log2FC", "setting": "gene GCG (2641), apoptosis genes", "value": 0.020}, {"measurement": "GCLM log2FC", "setting": "gene GCLM (2730), apoptosis genes", "value": -0.092}, {"measurement": "GCM2 log2FC", "setting": "gene GCM2 (9247), apoptosis genes", "value": -0.015}, {"measurement": "log2FC", "setting": "gene GEM (Gene 2669), cell cycle genes", "value": 0.406}, {"measurement": "GFRAL log2FC", "setting": "gene GFRAL (389400), apoptosis genes", "value": 0.017}, {"measurement": "GHRL log2FC", "setting": "gene GHRL (51738), apoptosis genes", "value": -0.012}, {"measurement": "GIMAP5 log2FC", "setting": "gene GIMAP5 (55340), apoptosis genes", "value": 0.026}, {"measurement": "GJB6 log2FC", "setting": "gene GJB6 (10804), apoptosis genes", "value": -0.056}, {"measurement": "log2FC", "setting": "gene GOLGA2 (Gene 2801), cell cycle genes", "value": 0.210}, {"measurement": "log2FC", "setting": "gene GORASP1 (Gene 64689), cell cycle genes", "value": 0.146}, {"measurement": "log2FC", "setting": "gene GORASP2 (Gene 26003), cell cycle genes", "value": -0.256}, {"measurement": "GPI log2FC", "setting": "gene GPI (2821), apoptosis genes", "value": -0.083}, {"measurement": "GPR65 log2FC", "setting": "gene GPR65 (8477), apoptosis genes", "value": 0.021}, {"measurement": "GRK1 log2FC", "setting": "gene GRK1 (6011), apoptosis genes", "value": -0.013}, {"measurement": "log2FC", "setting": "gene GTPBP8 (Gene 29083), cell cycle genes", "value": 0.316}, {"measurement": "log2FC", "setting": "gene GTSE1 (Gene 51512), cell cycle genes", "value": -0.374}, {"measurement": "log2FC H1FOO", "setting": "gene H1FOO (Gene 132243), cell cycle genes", "value": 0.014}, {"measurement": "HCLS1 log2FC", "setting": "gene HCLS1 (3059), apoptosis genes", "value": 0.022}, {"measurement": "log2FC", "setting": "gene HELLS (Gene 3070), cell cycle genes", "value": 0.388}, {"measurement": "HIPK3 log2FC", "setting": "gene HIPK3 (10114), apoptosis genes", "value": 0.006}, {"measurement": "log2FC HORMAD2", "setting": "gene HORMAD2 (Gene 150280), cell cycle genes", "value": 0.014}, {"measurement": "log2FC HPGD", "setting": "gene HPGD (Gene 3248), cell cycle genes", "value": 0.013}, {"measurement": "HPN log2FC", "setting": "gene HPN (3249), apoptosis genes", "value": -0.022}, {"measurement": "HTRA2 log2FC", "setting": "gene HTRA2 (27429), apoptosis genes", "value": 0.031}, {"measurement": "log2FC HTRA2", "setting": "gene HTRA2 (Gene 27429), cell cycle genes", "value": 0.031}, {"measurement": "IFI6 log2FC", "setting": "gene IFI6 (2537), apoptosis genes", "value": 0.041}, {"measurement": "IFNA2 log2FC", "setting": "gene IFNA2 (3440), apoptosis genes", "value": -0.017}, {"measurement": "IFNB1 log2FC", "setting": "gene IFNB1 (3456), apoptosis genes", "value": 0.00571}, {"measurement": "IL1A log2FC", "setting": "gene IL1A (3552), apoptosis genes", "value": -0.044}, {"measurement": "IL2RA log2FC", "setting": "gene IL2RA (3559), apoptosis genes", "value": -0.031}, {"measurement": "IL2RB log2FC", "setting": "gene IL2RB (3560), apoptosis genes", "value": 0.014}, {"measurement": "IL12A log2FC", "setting": "gene IL12A (3592), apoptosis genes", "value": 0.00544}, {"measurement": "log2FC IL12A", "setting": "gene IL12A (Gene 3592), cell cycle genes", "value": 0.00544}, {"measurement": "IL12B log2FC", "setting": "gene IL12B (3593), apoptosis genes", "value": -0.025}, {"measurement": "IL17A log2FC", "setting": "gene IL17A (3605), apoptosis genes", "value": -0.016}, {"measurement": "IL19 log2FC", "setting": "gene IL19 (29949), apoptosis genes", "value": -0.00458}, {"measurement": "ILK log2FC", "setting": "gene ILK (3611), apoptosis genes", "value": -0.066}, {"measurement": "log2FC ILKAP", "setting": "gene ILKAP (Gene 80895), cell cycle genes", "value": 0.002}, {"measurement": "INSL6 log2FC", "setting": "gene INSL6 (11172), apoptosis genes", "value": 0.055}, {"measurement": "ISL1 log2FC", "setting": "gene ISL1 (3670), apoptosis genes", "value": -0.036}, {"measurement": "ITGA6 log2FC", "setting": "gene ITGA6 (3655), apoptosis genes", "value": -0.050}, {"measurement": "ITGB2 log2FC", "setting": "gene ITGB2 (3689), apoptosis genes", "value": -0.075}, {"measurement": "ITM2C log2FC", "setting": "gene ITM2C (81618), apoptosis genes", "value": -0.082}, {"measurement": "log2FC KATNB1", "setting": "gene KATNB1 (Gene 10300), cell cycle genes", "value": 0.014}, {"measurement": "log2FC KCNA5", "setting": "gene KCNA5 (Gene 3741), cell cycle genes", "value": -0.012}, {"measurement": "KDR log2FC", "setting": "gene KDR (3791), apoptosis genes", "value": -0.026}, {"measurement": "log2FC", "setting": "gene KIAA0101 (Gene 9768), cell cycle genes", "value": 0.294}, {"measurement": "KIAA1324 log2FC", "setting": "gene KIAA1324 (57535), apoptosis genes", "value": -0.008}, {"measurement": "log2FC KIF2B", "setting": "gene KIF2B (Gene 84643), cell cycle genes", "value": -0.018}, {"measurement": "log2FC", "setting": "gene KIF13A (Gene 63971), cell cycle genes", "value": 0.190}, {"measurement": "log2FC", "setting": "gene KIF23 (Gene 9493), cell cycle genes", "value": 0.530}, {"measurement": "log2FC KIF25", "setting": "gene KIF25 (Gene 3834), cell cycle genes", "value": -0.013}, {"measurement": "KLF4 log2FC", "setting": "gene KLF4 (9314), apoptosis genes", "value": -0.009}, {"measurement": "KRT20 log2FC", "setting": "gene KRT20 (54474), apoptosis genes", "value": -0.037}, {"measurement": "LALBA log2FC", "setting": "gene LALBA (3906), apoptosis genes", "value": 0.031}]}]}
